Reference: patent US11434330B2, “Polyrotaxanes bearing mixed cyclodextrin species and uses thereof” (Purdue Research Foundation, priority 2015, dated 2022)

What was measured:
[1] = Fixed-field relaxivity measurement at 7 T; type: physicochemical; details: 7 T Bruker BioSpec; 23° C.; 0.05 to 1.0 mM Gd in water
Description: A fixed field measurement of relaxivity was also performed on aqueous solutions of the polyrotaxane contrast agents in the range of 0.05 to 1.0 mM using a 7 T ([…]) Bruker BioSpec scanner at 23° C. The relaxivity r1 and r2 were determined by plotting the inverse longitudinal (1/T1) and transversal (1/T2) relaxation times, respectively, as a function of Gd concentrations.
Relaxivity Measurements. The longitudinal and transversal relaxation rate of the contrast agents and J774 macrophage cells were measured using a 7 T Bruker BioSpec scanner (Bindley Bioscience Center, West Lafayette, Ind.) 47/30 equipped with a Bruker Biospin MRI GmbH volume coil, 86 mm ID, operating at 300 MHz at 23° C. (RES 300 1 H 112/086 QNS TO AD). […] T1 and T2 values were measured using inversion recovery sequence and multi-slice-multi-echo (MSME) sequence respectively. […] The parameters used are as followed. r1: Repetition times, TE=50.72, 100, 350, 750, 1250, 2500, 3500, and 5000 ms, echo time, TE=22.22 ms, FOV=10×10 mm^2, matrix=128×128, slice thickness=1.0 mm, acquisition number=1. r2: TR=2000 ms, TE=15, 30, 45, 60, 75, 90, 105 ms, FOV=20×20 mm^2, matrix=128×128, slice thickness=1 mm, acquisition number=1. r1 and r2 values were determined by as the slopes of the lines for the plot of 1/T1 and 1/T2 against Gd concentrations, respectively, using the same ROI.

[2] = test system: J774 macrophage cells; assay: Cellular uptake by MR relaxation of lysed cells; type: cell-based; details: 0.1 mM Gd, 12 h at 37° C., serum free media, 7 T
Description: Cellular Uptake Studies. Since macromolecular constructs such as polyrotaxanes can trigger the innate immune system (monocytes, macrophages, dendritic cells) in vivo, their uptake of the polyrotaxane contrast was evaluated by macrophages using the MR imaging modality. In addition, one can take advantage of the biological properties of these materials to image macrophages in human diseases including cancer, atherosclerosis, myocardial infarction, diabetes and other conditions. Macrophages are known to play an important role in host system defense leading to the detrimental fate of most nanomaterials. […] Based on these reports, cellular uptake in J774 macrophages of the polyrotaxane contrast agents was assessed. […] T1 and T2 values from the lysed cells contained in 300 μL eppendorf tubes were measured using an inversion recovery sequence at 7 T and the inverse of spin-lattice (1/T1) and spin-spin (1/T2) relaxation times were evaluated. […]
Cellular Uptake Studies. […] These cells were then collected and analyzed using reverse spin echo scanning on Bruker 7 T Biospect small animal scanner (Bindley Bioscience Center, West Lafayette, Ind.). The relaxations T1 and T2 values were collected from samples images recorded from the cells contained in 300 μL plastic containers using the scanning conditions similarly to those employed for In vitro imaging of polyrotaxane solutions.

[3] = In vivo MRI contrast enhancement in Balb/C mice; details: i.v., 3D T1-weighted MRI
Description: In Vivo MRI Contrast Enhancement of Gd^3+—HP-β-CD/SBE-β-CD-PRs. To investigate the MR contrast enhancement and the circulation fate in vivo of the polyrotaxanes, 3D T1-weighted MR images of Balb/C mice after intra-venous injection were acquired with 7 T Bruker small animal scanner before injection and 10, 20, 35, 50, and 60 min post injection. The tissue contrast enhancement of the compounds has different fates dependent on the threading efficiency, molecular weight, size and surface charge of each contrast agent. […] As expected, DOTAREM® was completely eliminated within 20 min, a typical trend commonly observed for small contrast agents.
To quantify the contrast enhancements, the contrast signal-to-noise ratio (CNR) was calculated from regions of interest (ROIs) carefully drawn in the cross-section images of heart, liver, and kidney obtained from the 2D T1-weighted scans. There was insignificant signal enhancement in all these tissues (FIG. 4). […]
In Vivo MR Imaging. […] To quantify the changes in tissues signal intensity, regions of interest (ROIs) were drawn in images of different organs obtained from the 2D T1-weighted scans and ParaVision software was used to evaluate the mean intensities. The contrast-to-noise ratio (CNR) was calculated for the tissues using the following equation: […]

[4] = test system: npc1^−/− mice; details: subcutaneous injection, 4.0 mg/kg of body weight; cited from earlier work
[5] = room temperature, in water; cited from earlier work
[6] = within 24 h; cited from earlier work
[7] = test system: Niemann-Pick C1-deficient (npc1−/−) fibroblasts; assay: Cholesterol mobilization (filipin staining) in npc1−/− fibroblasts; type: cell-based; details: 6 h after treatment, total β-CD concentration 25 μM
Description: PR carrying an increasing percentage of SBE-β-CD were administered to Niemann-Pick C1-deficient (npc1−/−) fibroblasts to examine their ability to mobilize cholesterol from sites of aberrant accumulation. Each PR family member, generated with a 0%, 30%, 50%, 60%, or 100% SBE-β-CD feed ratio, was administered at a total β-CD concentration of 25 μM and compared to administration of 25 μM SBE-β-CD or HP-β-CD monomers as controls. Comparisons were made at equivalent β-CD concentrations in these experiments, such that each PR construct carrying 10 copies of β-CD was administered at a 10-fold lower molar concentration than for the β-CD monomer controls, so that any apparent differences in cholesterol mobilization could be attributed to the PR agent (a type of β-CD prodrug) rather than the total drug concentration added to the cells.
HP-β-CD and SBE-β-CD monomers decreased the average filipin staining in npc1−/− fibroblasts to approximately 75% of the untreated control levels after 6 h. PR comprised of 100% HP-β-CD and 100% SBE-β-CD performed equivalently, each decreasing filipin staining to ˜78% of control. PRs carrying 30:70 SBE-β-CD:HP-β-CD ratio decreased fluorescence to ˜65% of the untreated group.

Compound | r1 (mM^−1s^−1) (1/T1) [1] | cellular uptake (1/T1, 1/T2 of lysed cells) [2] | time to complete elimination [3] | effect on survival, hepatopathology, neuropathology [4] | water solubility [5] | fraction cleared from the bloodstream [6] | filipin staining, % of untreated control [7]
CNC[C@H](O)[C@@H](O)[C@H](O)[C@H](O)CO.O=C([O-])CN1CCN(CC(=O)[O-])CCN(CC(=O)O)CCN(CC(=O)[O-])CC1.[Gd+3] [DOTAREM] | 3.8 mM⁻¹ s⁻¹ | did not show any endocytosis | ≤ 20 min |  |  |  | 
2-Hydroxypropyl-β-cyclodextrin [HP-β-CD] |  |  |  | improvement in their survival, hepatopathology, and neuropathology | 650 mg/mL | > 90% | approximately 75%
4-sulfobutylether-β-cyclodextrin [SBE-β-CD] |  |  |  |  |  |  | approximately 75%
